Assay results as given in US20220024882A1, “NOVEL TUMOR ANTIGEN BINDING AGENTS AND USES THEREOF” (ITM Isotopen Technologien München AG, priority 2018, published 2022).
Where “and” joins values, the source holds several entries; their conditions need not be identical. Equal entries are not always repeated.

Assays:
[1] = test system: PC-3 PIP/flu tumor-bearing mice; assay: Biodistribution study in PC-3 PIP/flu tumor-bearing mice; assay type: in vivo, athymic nude Balb/c mice; details: for Kidneys / Tumor-to-kidney / Blood / Bone / Heart / Intestines / Liver / Lung / Muscle / Salivary glands / Spleen / Stomach / Tumor-to-blood / Tumor-to-liver: PC-3 PIP/flu tumor-bearing mice; for PC-3 flu Tumor: PSMA-negative tumor xenograft; for PC-3 flu Tumor / PC-3 PIP Tumor: mice; for PC-3 PIP Tumor: PSMA-positive tumor xenograft
Description: (§1) In vivo experiments were approved by the local veterinarian department and conducted in accordance with the Swiss law of animal protection. Mice were obtained from Charles River Laboratories, Sulzfeld, Germany, at the age of 5-6 weeks. Female, athymic nude Balb/c mice were subcutaneously inoculated with PSMA-positive PC-3 PIP cells (6×10^6 cells in 100 μL Hank's balanced salt solution (HBSS) with Ca^2+/Mg^2+) on the right shoulder and with PSMA-negative PC-3 flu cells (5×10^6 cells in 100 μL HBSS Ca^2+/Mg^2+) on the left shoulder. Two weeks later, the tumors reached a size of about 80-300 mm^3 suitable for the performance of the biodistribution studies.
Biodistribution studies were performed 12-15 days after PC-3 PIP/flu tumor cell inoculation. […] The radioligands were injected in a lateral tail vein in a volume of 100-200 μL. Mice were euthanized at different time points after injection (p.i.) of the radioligands. Selected tissues and organs were collected, weighed and measured using a γ-counter. The results were decay-corrected and listed as a percentage of the injected activity per gram of tissue mass (% IA/g) (Table 3 and 4).
Mice were obtained from Charles River Laboratories, Sulzfeld, Germany, at the age of 5-6 weeks. Female, athymic nude BALB/c mice were subcutaneously inoculated with PSMA-positive PC-3 PIP cells (6×10^6 cells in 100 μL Hank's balanced salt solution (HBSS)) on the right shoulder and with PSMA-negative PC-3 flu cells (5×10^6 cells in 100 μL HBSS) on the left shoulder. Two weeks later, the tumors reached a size of about 80-300 mm^3 suitable for the performance of the biodistribution and imaging studies.
Biodistribution studies were performed 12-15 days after PC-3 PIP/flu tumor cell inoculation. ^177Lu-Ibu-sPSMA was diluted in 0.9% NaCl containing 0.05% bovine serum albumin (BSA) to prevent adhesion to the vial and syringe material. The radioligand was injected in a lateral tail vein in a volume of 100 μL. Mice were euthanized at different time points after injection (p.i.) of the radioligand. Selected tissues and organs were collected, weighed and measured using a γ-counter. The results were decay-corrected and listed as a percentage of the injected activity per gram of tissue mass (% IA/g) (Table 6, FIG. 18).

[2] = Whole-body activity measurements, tumor-bearing mice; assay type: in vivo, athymic nude Balb/c mice; details: 4 h p.i., 30 MBq, 1 nmol i.v., activity right after injection = 100%
Description: as §1, with “imaging” for “biodistribution”
The single radioligands (specific activity: 30 MBq/nmol) were diluted in 0.9% NaCl containing 0.05% bovine serum albumin (BSA) and i.v. injected into PC-3 PIP/flu tumor bearing mice (30 MBq, 1 nmol, 100 μL) for SPECT/CT imaging purposes. The mice were measured in a dose calibrator at 4 h, 24 h, 48 h and 72 h p.i., respectively.

| Compound | Blood ([1]; 4 h p.i.) [% IA/g] | Bone ([1]; 4 h p.i.) [% IA/g] | Heart ([1]; 4 h p.i.) [% IA/g] | Intestines ([1]; 4 h p.i.) [% IA/g] | Kidneys ([1]; 4 h p.i.) [% IA/g] | Liver ([1]; 4 h p.i.) [% IA/g] | Lung ([1]; 4 h p.i.) [% IA/g] | Muscle ([1]; 4 h p.i.) [% IA/g] | Salivary glands ([1]; 4 h p.i.) [% IA/g] | Spleen ([1]; 4 h p.i.) [% IA/g] | Stomach ([1]; 4 h p.i.) [% IA/g] | Tumor-to-blood ([1]; 4 h p.i.) | Tumor-to-kidney ([1]; 4 h p.i.) | Tumor-to-liver ([1]; 4 h p.i.) | PC-3 flu Tumor ([1]; 4 h p.i.) [% IA/g] | PC-3 PIP Tumor ([1]; 4 h p.i.) [% IA/g] | Bone ([1]; 24 h p.i.) [% IA/g] | Heart ([1]; 24 h p.i.) [% IA/g] | Intestines ([1]; 24 h p.i.) [% IA/g] | Kidneys ([1]; 24 h p.i.) [% IA/g] | other results |
| --- | --- | --- | --- | --- | --- | --- | --- | --- | --- | --- | --- | --- | --- | --- | --- | --- | --- | --- | --- | --- | --- |
| CC(C)Cc1ccc(C(C)C(=O)NC(CC(=O)O)C(=O)NCCCCC(NC(=O)CN2CCN(CC(=O)O)CCN(CC(=O)O)CCN(CC(=O)O)CC2)C(=O)NCC2CCC(C(=O)NC(Cc3ccc4ccccc4c3)C(=O)NCCCCC(NC(=O)NC(CCC(=O)O)C(=O)O)C(=O)O)CC2)cc1 (stereo not shown) [^177Lu-Ibu-Dα-PSMA, metal not drawn] | 2.33 ± 0.71 | 0.37 ± 0.10 | 0.89 ± 0.27 | 0.49 ± 0.08 | 27.2 ± 3.31 | 0.84 ± 0.22 | 1.54 ± 0.35 | 0.35 ± 0.08 | 0.74 ± 0.20 | 0.90 ± 0.04 | 0.25 ± 0.08 | 22.5 ± 5.28 | 1.82 ± 0.03 | 60.8 ± 11.1 | 1.00 ± 0.21 | 49.4 ± 5.33 | 0.11 ± 0.02 | 0.18 ± 0.03 | 0.11 ± 0.02 | 18.2 ± 3.06 | Kidneys ([1]; 1 h p.i.): 73±2 % IA/g; Tumor-to-kidney ([1]; 1 h p.i.): 0.59±0.08; Blood ([1]; 24 h p.i.): 0.33 ± 0.06 % IA/g; Liver ([1]; 24 h p.i.): 0.37 ± 0.04 % IA/g; Lung ([1]; 24 h p.i.): 0.39 ± 0.09 % IA/g; Muscle ([1]; 24 h p.i.): 0.07 ± 0.02 % IA/g; Salivary glands ([1]; 24 h p.i.): 0.21 ± 0.04 % IA/g; Spleen ([1]; 24 h p.i.): 0.46 ± 0.10 % IA/g; Stomach ([1]; 24 h p.i.): 0.12 ± 0.03 % IA/g; Tumor-to-blood ([1]; 24 h p.i.): 198 ± 32.6; Tumor-to-kidney ([1]; 24 h p.i.): 3.56 ± 0.34; Tumor-to-liver ([1]; 24 h p.i.): 196 and 196 ± 44.4; PC-3 flu Tumor ([1]; 24 h p.i.): 0.38 ± 0.05 % IA/g; PC-3 PIP Tumor ([1]; 24 h p.i.): 84.2±14.9 % IA/g; whole-body retention of radioactivity [2]: 29% |
| CC(C)Cc1ccc(C(C)C(=O)NC(CC(N)=O)C(=O)NCCCCC(NC(=O)CN2CCN(CC(=O)O)CCN(CC(=O)O)CCN(CC(=O)O)CC2)C(=O)NCC2CCC(C(=O)NC(Cc3ccc4ccccc4c3)C(=O)NCCCCC(NC(=O)NC(CCC(=O)O)C(=O)O)C(=O)O)CC2)cc1 (stereo not shown) [^177Lu-Ibu-N-PSMA, metal not drawn] | 3.58 ± 1.39 | 0.56 ± 0.22 | 1.23 ± 0.61 | 0.50 ± 0.18 | 27.1 ± 8.37 | 1.27 ± 0.55 | 2.20 ± 0.95 | 0.47 ± 0.19 | 0.94 ± 0.38 | 1.40 ± 0.75 | 0.51 ± 0.23 | 20.1 ± 6.22 | 2.48 ± 0.11 | 18.2 ± 2.70 | 1.15 ± 0.52 | 65.4 ± 15.6 | 0.08 ± 0.02 | 0.12 ± 0.03 | 0.09 ± 0.02 | 8.02±1.13 | Liver ([1]; 24 h p.i.): 0.32 ± 0.05 % IA/g; Lung ([1]; 24 h p.i.): 0.24 ± 0.06 % IA/g; Muscle ([1]; 24 h p.i.): 0.06 ± 0.02 % IA/g; Salivary glands ([1]; 24 h p.i.): 0.57 ± 0.35 % IA/g; Spleen ([1]; 24 h p.i.): 0.24 ± 0.06 % IA/g; Stomach ([1]; 24 h p.i.): 0.17 ± 0.09 % IA/g; Tumor-to-blood ([1]; 24 h p.i.): 227 ± 41.7; Tumor-to-kidney ([1]; 24 h p.i.): 6.90 ± 2.43; Tumor-to-liver ([1]; 24 h p.i.): 182 and 182 ± 52.6; PC-3 flu Tumor ([1]; 24 h p.i.): 0.23 ± 0.01 % IA/g; PC-3 PIP Tumor ([1]; 24 h p.i.): 58.0 ± 21.0 % IA/g; whole-body retention of radioactivity [2]: 12% |
